Test results taken from PubChem BioAssay (NCI).
Several values for one entry are separate records, joined by “and”; a condition that tells them apart may be missing. Equal values may be shown once.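 Protocol summary: plate cells (96-well), add compound at 5 concentrations, incubate 48 h, interpolate endpoints linearly. GI50 is the concentration that inhibits growth by half. TGI marks complete inhibition of growth.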

Columns and labels:
Experiment in all cases: inhibition of tumour cell growth, NCI panel, 48 h
HT29 colon = test system: HT29 colon
CAKI-1 renal = test system: CAKI-1 renal
OVCAR-3 ovarian = test system: OVCAR-3 ovarian
KM12 colon = test system: KM12 colon
SR leukemia = test system: SR leukemia
HCT-116 colon = test system: HCT-116 colon
SK-MEL-5 melanoma = test system: SK-MEL-5 melanoma
CCRF-CEM leukemia = test system: CCRF-CEM leukemia
MOLT-4 leukemia = test system: MOLT-4 leukemia
SK-OV-3 ovarian = test system: SK-OV-3 ovarian

| SMILES | GI50 (HT29 colon) [µM] | TGI (HT29 colon) | GI50 (CAKI-1 renal) [µM] | TGI (CAKI-1 renal) | GI50 (OVCAR-3 ovarian) [µM] | TGI (OVCAR-3 ovarian) | GI50 (KM12 colon) | TGI (KM12 colon) | GI50 (SR leukemia) [µM] | TGI (SR leukemia) [µM] | GI50 (HCT-116 colon) [µM] | TGI (HCT-116 colon) | GI50 (SK-MEL-5 melanoma) | TGI (SK-MEL-5 melanoma) | GI50 (CCRF-CEM leukemia) [µM] | TGI (CCRF-CEM leukemia) | GI50 (MOLT-4 leukemia) [µM] | TGI (MOLT-4 leukemia) [µM] | GI50 (SK-OV-3 ovarian) [µM] | TGI (SK-OV-3 ovarian) |
| --- | --- | --- | --- | --- | --- | --- | --- | --- | --- | --- | --- | --- | --- | --- | --- | --- | --- | --- | --- | --- |
| Cc1cc(S(=O)(=O)Nc2nc3ccsc3c(=O)n2Cc2ccco2)c(S)cc1Cl | > 100 | > 100 µM | > 100 | > 100 µM | > 100 | > 100 µM | > 100 µM | > 100 µM | 9.95 | 29.7 | > 100 | > 100 µM | 42.9 µM | > 100 µM | 50.7 | > 100 µM | 19.4 | 84.2 | – | – |
| O=C1c2ccccc2S(=O)(=O)N1CSC(=S)N1CCCC1 | > 100 | > 100 µM | > 100 | > 100 µM | > 25.6 | > 100 µM | > 100 µM | > 100 µM | – | – | 63.8 | > 100 µM | > 27.6 µM | > 100 µM | 5.78 | > 100 µM | 8.3 | > 100 | > 100 | > 100 µM |
| Cc1ccc(-c2ccc(Nc3c4ccccc4nc4ccccc34)cc2)cn1 | – | 4.75 µM | – | 9.02 µM | – | 6.41 µM | – | 19.1 µM | – | 6.56 | – | 10.3 µM | – | 16.5 µM | – | – | – | 3.59 | – | – |
| COc1ccc2nc(NCCCNCCO)c3sc4ccc(F)cc4c(=O)c3c2c1 | 1.58 | 3.23 µM | 1.58 | 2.98 µM | 1.8 | 3.38 µM | 1.81 µM | 3.52 µM | – | – | 1.47 | 2.86 µM | 1.73 µM | 3.14 µM | – | – | 1.85 | 3.97 | – | – |
| O=C1C(Cl)=C(Nc2ccc3cn[nH]c3c2)C(=O)c2ccccc21 | 1.98 | 3.72 µM | 1.47 | 2.78 µM | 1.08 | 2.27 µM | 3.23 µM | 14.7 µM | – | – | 1.43 | 2.78 µM | 0.308 µM | 1.26 µM | 1.52 | 3.91 µM | 1.47 | 4.15 | 12 | 24.3 µM |
| O=C(CC/C(C/C(=N/O)c1ccc(F)cc1)=N/O)N(Cc1ccccc1)Cc1ccccc1 | – | > 100 µM | – | > 100 µM | – | > 100 µM | – | > 100 µM | – | – | – | > 100 µM | – | > 100 µM | – | > 100 µM | – | > 100 | – | – |
| CC1C=C(OC(=O)c2ccccc2)C(=O)C(n2cc(F)c(=O)n(C(=O)c3ccccc3)c2=O)O1 (stereo not drawn) | – | > 100 µM | – | 81.4 µM | – | 56.4 µM | – | – | – | – | – | > 100 µM | – | > 100 µM | – | 45.2 µM | – | 71.4 | – | > 100 µM |
| O=C1CC2CCCCC2=C1O (stereo not drawn) | – | – | – | > 100 µM | – | > 100 µM | – | > 100 µM | – | – | – | > 100 µM | – | > 100 µM | – | > 100 µM | – | > 100 | – | > 100 µM |
| Cc1cc(N(CCC#N)CCC#N)ccc1/C=C(\NC(=O)/C=C/c1ccccc1)NC(=O)Nc1ccc(Cl)cc1 | – | > 100 µM | – | > 100 µM | – | > 100 µM | – | > 100 µM | – | – | – | > 100 µM | – | > 100 µM | – | > 100 µM | – | > 100 | – | – |
| N#C/C(=C\c1ccc(Br)cc1)n1nnc2cccc(F)c21 | – | – | 2.05 | 4.99 µM | 0.861 | 2.15 µM | 1.51 µM | 3.31 µM | – | – | – | – | 1.41 µM | 2.75 µM | 0.444 | > 100 µM | – | – | – | – |
| CCCCCCCCCCCCCC/C(C(=O)OC)=C(/O)C(=O)OCC | – | > 100 µM | – | > 100 µM | – | > 100 µM | – | 59.8 µM | – | – | – | > 100 µM | – | > 100 µM | – | > 100 µM | – | > 100 | – | > 100 µM |
| COc1cc2c3c(n(CCCN4CCN(C)CC4)c(=O)c2cc1OC)-c1cc2c(cc1C3=O)OCO2 | 16.9 | > 100 µM | 10.3 | 23.7 µM | 15.3 | 30.1 µM | 12.8 µM | 29 µM | – | – | 1.49 | 11.5 µM | 14.2 µM | 32.2 µM | 2.44 | 17.7 µM | – | 0.0353 | 12.3 | 34 µM |
| CC1=C(C(=O)Nc2ccccc2C)C(c2ccc([N+](=O)[O-])cc2)C(C(=O)Nc2ccccc2C)=C(C)N1 | – | > 100 µM | – | > 100 µM | – | > 100 µM | – | > 100 µM | – | – | – | – | – | > 100 µM | – | 90.5 µM | – | > 100 | – | > 100 µM |
| C=C(CN1CCN(c2cccc(C(F)(F)F)c2)CC1)c1ccc(C(=O)Nc2ccccc2N)cc1 | 1.46 | > 50 µM | 0.625 | > 17.6 µM | 0.545 | 6.2 µM | 0.486 µM | 5.15 µM | 0.0568 | > 50 | 1.14 | 11.7 µM | 0.568 µM | 6.72 µM | 0.335 | > 50 µM | 0.13 | 1.29 | – | – |
| O=C(O)CCC1COc2ccccc2O1 (stereo not drawn) | – | > 10 µM | – | > 10 µM | – | > 10 µM | – | > 10 µM | – | – | – | > 10 µM | – | > 10 µM | – | > 10 µM | – | > 10 | – | > 10 µM |
| Cc1ccc(NC(=O)CC(=O)n2nc(-c3ccccc3)c(N=Nc3ccc(Cl)cc3)c2-c2ccccc2)cc1 | – | 40.4 µM | – | > 100 µM | – | > 100 µM | – | > 100 µM | – | – | – | 33.8 µM | – | > 100 µM | – | 54.3 µM | – | > 100 | – | > 100 µM |
| CC12O[C@H](c3ccccc3)[C@H](c3ccccc3)N1C(=O)C1(C(=O)OCc3ccccc3)CC12 (stereo partly drawn) | – | > 100 µM | – | > 100 µM | – | > 100 µM | – | > 100 µM | – | – | – | > 100 µM | – | > 100 µM | – | > 100 µM | – | 63.2 | – | > 100 µM |
| NC1=NC(c2ccccc2)N=C(Nc2ccccc2)N1 (stereo not drawn) | > 100 | > 100 µM | > 100 | > 100 µM | 32 | > 100 µM | 31.6 µM | > 100 µM | – | – | > 100 | > 100 µM | 93 µM | > 100 µM | > 100 | > 100 µM | > 100 | > 100 | > 100 | > 100 µM |
| COc1cc(-c2oc3c(OC)c(OC)cc(O)c3c(=O)c2OC)ccc1O | – | > 100 µM | – | > 50 µM | – | > 50 µM | > 100 µM and 19 µM | > 100 µM | – | – | – | > 100 µM | 2.37 µM and 9.11 µM | > 100 µM and 37.7 µM | – | > 100 µM and 21.4 µM | – | 31.5 | – | 14.3 µM |
| CCC(=O)OC1CCn2c1nc1c2C(=O)C(C)=C(N2CC2)C1=O (stereo not drawn) | – | 1.09 µM and 0.495 µM | 0.233 | 1.01 µM and 0.511 µM | 0.0296 | 0.0975 µM and 0.137 µM | 0.0242 µM | 0.159 µM and 0.363 µM | – | – | 0.0229 | 0.779 µM and 0.409 µM | 0.165 µM | 0.0765 µM and 0.319 µM | 0.523 | 3.85 µM and 21.8 µM | 1.46 | > 83.6 | 0.0407 | 0.255 µM and 0.283 µM |
| N/N=C1\c2ccccc2C2/C(=N\N)c3ccccc3C12 (stereo not drawn) | – | > 100 µM | – | > 100 µM | – | > 100 µM | – | > 100 µM | – | – | – | – | – | > 100 µM | – | > 100 µM | – | > 100 | – | > 100 µM |
| C=CCNC1=C(C(=O)OCC)C(=O)CO1 | – | > 100 µM | – | > 100 µM | – | > 100 µM | – | – | – | > 100 | – | > 100 µM | – | > 100 µM | – | > 100 µM | – | > 100 | – | – |
| CCC(C(=O)[O-])C(=O)[O-].CCC(C(=O)[O-])C(=O)[O-].N.N.NCCCCCN.[Pt+4].[Pt+4] | > 100 | > 100 µM | > 100 | > 100 µM | > 100 | > 100 µM | > 100 µM | > 100 µM | – | – | > 100 | > 100 µM | > 100 µM | > 100 µM | 55.9 | > 100 µM | 84.3 | > 100 | > 100 | > 100 µM |
| O=c1cccc(C#Cc2ccccc2)o1 | 14.6 | > 100 µM | 5.05 | 15.3 µM | 2.42 | 11.1 µM | 5.05 µM | 14.6 µM | – | – | 2.8 | 26.2 µM | 2.51 µM | 9.59 µM | – | > 44 µM | 2.77 | – | 16.2 | > 44.8 µM |
| O=S(=O)(NC(=S)Nc1ccccc1)c1ccc(N2N=C3c4ccccc4CC3C2c2cccs2)cc1 (stereo not drawn) | 36.2 | > 100 µM | 18.5 | 43.8 µM | 17.2 | 46.9 µM | 21.5 µM | > 100 µM | – | – | 15.1 | 34.8 µM | 20.8 µM | 44.7 µM | 30.5 | 85.9 µM | 17.5 | > 100 | 49.5 | > 100 µM |
| Cc1ccc(NS(=O)(=O)c2cc(C(C)(C)C)ccc2OCCOCCOCCOc2ccc(C(C)(C)C)cc2S(=O)(=O)Nc2ccc(C)cc2)cc1 | – | > 100 µM | – | > 100 µM | – | > 100 µM | – | > 100 µM | – | – | – | > 100 µM | – | > 100 µM | – | > 100 µM | – | > 100 | – | > 100 µM |
| COC(=O)c1c2c(c(C)[n+]([O-])c1C)C(=O)C=C(NCc1cccc(OC)c1)C2=O | 0.37 | 1.54 µM | 0.696 | 2.22 µM | 0.257 | 0.743 µM | – | – | 0.561 | 8.11 | – | – | 0.171 µM | 0.334 µM | 0.471 | – | 1.09 | 3.54 | – | – |
